Experimental findings from US7803801B2, “Aminopyridine compounds having Syk inhibitory activity” (Japan Tobacco, Inc., priority 2005, dated 2010) are described below.

Where a name gives a salt, the structure may show the parent alone.

This experiment deals with GST-Syk Full Protein (human) (Homo sapiens, UniProt P43405). The experiment is described as follows: Syk kinase inhibition test (HTRF method). Format: biochemical. Particulars: Tables 1-x, compounds A; read-out: sykHTRF ave IC50. In short, it runs like this:
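HTRF read-out: after EDTA termination and 1 h with XL665-streptavidin and Eu-anti-phosphotyrosine, the 665/620 nm ratio was measured. The reaction ran 30 min at 20–25 °C with final 6.4 nM human GST-Syk, 250 nM biotinylated peptide, 100 μM ATP, pH 7.0 HEPES buffer, 2% DMSO.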
As for `Cc1ccnc(Nc2cccc(-c3cnc(N(CC(N)=O)C(C)C)s3)n2)c1` [Compound A-663, 2-(N-isopropyl-N-{5-[6-(4-methylpyridin-2-ylamino)pyridin-2-yl]thiazol-2-yl}amino)acetamide], the IC50 was less than 100 nM.

As to `Cc1ccnc(Nc2cccc(-c3cnc(CN4CCC[C@H]4C(=O)N(C)C)s3)n2)c1` [Compound A-664], the IC50 was 100 to 1000 nM.

As for `Cc1ccnc(Nc2cccc(-c3cnc(N(CC(=O)NCC(F)(F)F)C4CCCCC4)s3)n2)c1` [Compound A-665], the IC50 was 100 to 1000 nM.

On to `CNC(=O)[C@@H]1CCCN1Cc1ncc(-c2cccc(Nc3cc(C)ccn3)n2)s1` [Compound A-666], for which the IC50 was in the range of 100 to 1000 nM.

For the molecule `Cc1ccnc(Nc2cccc(-c3cnc(CN4CCC[C@H]4C(N)=O)s3)n2)c1` [Compound A-667], the IC50 was 100 to 1000 nM.

`Cc1ccnc(Nc2cccc(-c3cnc(N(C)C(C(N)=O)C(C)C)s3)n2)c1` (stereo not shown) [Compound A-668, 3-methyl-2-(N-methyl-N-{5-[6-(4-methylpyridin-2-ylamino)pyridin-2-yl]thiazol-2-yl}amino)butylamide]: the IC50 is less than 100 nM.

Regarding `Cc1ccnc(Nc2cccc(-c3cnc(N(CC(N)=O)C4CCCCC4)s3)n2)c1` [Compound A-669], the IC50 was 100 to 1000 nM.

Take `Cc1ccnc(Nc2cccc(-c3cnc(N4CCC(CC(C)(C)O)CC4)s3)n2)c1` [Compound A-670]: the IC50 lay within 100 to 1000 nM.

In the case of `Cc1ccnc(Nc2cccc(-c3cnc(N(C)C4CCN(C(=O)C(C)(C)C)CC4)s3)n2)c1` [Compound A-671], the IC50 was 100 to 1000 nM.

For `Cc1ccnc(Nc2cccc(-c3cnc(N(C)C4CCN(C(=O)C5CCC(O)CC5)CC4)s3)n2)c1` (stereo not shown) [Compound A-672], the IC50 was in the range of 100 to 1000 nM.

For the molecule `Cc1ccnc(Nc2cccc(-c3cnc(N(CCO)C4CCCCC4)s3)n2)c1` [Compound A-673], the IC50 was 100 to 1000 nM.

Regarding `CNC(=O)C(C(C)C)N(C)c1ncc(-c2cccc(Nc3cc(C)ccn3)n2)s1` (stereo not shown) [Compound A-674], the IC50 fell in the range of 100 to 1000 nM.

In the case of `Cc1ccnc(Nc2cccc(-c3cnc(N(C)C(C(=O)N4CCC(O)CC4)C(C)C)s3)n2)c1` (stereo not shown) [Compound A-675], the IC50 fell in the range of 100 to 1000 nM.

`Cc1ccnc(Nc2cccc(-c3cnc(N(C)C(C(=O)NCC(F)(F)F)C(C)C)s3)n2)c1` (stereo not shown) [Compound A-676]: the IC50 lay within 100 to 1000 nM.

Turning to `Cc1ccnc(Nc2cccc(-c3cnc(N4CCC(CCO)CC4)s3)n2)c1` [Compound A-677, 2-(1-{5-[6-(4-methylpyridin-2-ylamino)pyridin-2-yl]thiazol-2-yl}piperidin-4-yl)ethanol], the IC50 was less than 100 nM.

On to `Cc1ccnc(Nc2cccc(-c3cnc(N(CCCCCO)C(C)C)s3)n2)c1` [Compound A-678, 5-(N-isopropyl-N-{5-[6-(4-methylpyridin-2-ylamino)pyridin-2-yl]thiazol-2-yl}amino)pentan-1-ol], for which the IC50 was less than 100 nM.

On to `O=C(O)CC1CCN(c2ncc(-c3cccc(Nc4ncccn4)n3)s2)CC1` [Compound A-679], for which the IC50 fell in the range of 100 to 1000 nM.

As to `O=C(O)CC1CCN(c2ncc(-c3cccc(Nc4cnccn4)n3)s2)CC1` [Compound A-680, (1-{5-[6-(pyrazin-2-ylamino)pyridin-2-yl]thiazol-2-yl}piperidin-4-yl)acetic acid], the IC50 is less than 100 nM.

Turning to `O=C(O)CC1CCN(c2ncc(-c3cccc(Nc4cc(CCO)ccn4)n3)s2)CC1` [Compound A-681, [1-(5-{6-[4-(2-hydroxyethyl)pyridin-2-ylamino]pyridin-2-yl}thiazol-2-yl)piperidin-4-yl]acetic acid dihydrochloride], the IC50 was less than 100 nM.

Take `O=C(O)CCC1CCN(c2ncc(-c3cccc(Nc4ccccn4)n3)s2)CC1` [Compound A-682]: the IC50 was in the range of 100 to 1000 nM.

With `O=C(O)C1CCN(c2ncc(-c3cccc(Nc4ccccn4)n3)s2)CC1` [Compound A-683], the IC50 lay in the range of 100 to 1000 nM.

As to `Cc1ccnc(Nc2cccc(-c3cnc(N4CCC(C(F)C(=O)O)CC4)s3)n2)c1` (stereo not shown) [Compound A-684, fluoro-(1-{5-[6-(4-methylpyridin-2-ylamino)pyridin-2-yl]thiazol-2-yl}piperidin-4-yl)acetic acid], the IC50 was less than 100 nM.
